# Reference: US8507506B2, “Theophylline derivative inhibits osteoporosis” (Kaohsiung Medical University, priority 2011, dated 2013)
# Columns and labels:
# Format in all cases: cell-based
# [1] = test system: TRAP activity of RAW264.7 cells induced by RANKL; assay: TRAP activity assay; conditions: 10 ng/ml RANKL for 5 days, 10 μM
# Method: 10^3 cells were plated per well in 96-well plates. […] When the reaction fluid became yellow, 0.1 M, 100 μl/well NaOH was added to terminate the reaction, and OD405 was examined in 37° C. b) 3 μl/well supernatant was examined by Bio-Red DC Protein Assay to detect the protein concentration.
# [2] = test system: RAW264.7 cells; assay: BrdU assay, proliferation induced by RANKL; conditions: RAW264.7, 10 μM
# Method: The BrdU assay was followed the instructions of Cell Proliferation ELISA BrdU kit. 10^3 cells were plated per well in 96-well plates. […] After washing in wash buffer for three times, 100 μl/well Substrate reaction was added and incubated for 30 minutes at room temperature.
# [3] = test system: RAW264.7 cells; assay: MTT assay, proliferation induced by RANKL; conditions: RAW264.7, 10 μM
# Method: Cells were plated onto 96-well plates at a density of 10^3 cells per well. After 24 hours incubation, the different concentrations of the different drugs were administrated into the plates. […] Subsequently, the medium was removed, and 100 μl/well isopropanol was added to solved formazan. The plates were shaken for 15 minutes and stood for 15 minutes, and then the absorbance was measured at wavelength of 540 nm and 630 nm. The ratio of the absorbance of treated cells relative to that of the control cells was calculated and expressed as a percentage of cell survival.
Structure (SMILES),TRAP activity induced by RANKL [1],cell proliferation induced by RANKL (BrdU assay) [2],cell proliferation induced by RANKL (MTT assay) [3]
CCCc1nn(C)c2c(=O)[nH]c(-c3cc(S(=O)(=O)N4CCN(C)CC4)ccc3OCC)nc12 [sildenafil],have no obviously inhibiting effect on TRAP activity induced by RANKL,–,–
Cn1c(=O)c2[nH]cnc2n(C)c1=O [theophylline],have no obviously inhibiting effect on TRAP activity induced by RANKL,have no previous inhibiting effect on cell proliferation induced by RANKL,have no previous inhibiting effect on cell proliferation induced by RANKL
